Test results taken from US20230094952A1, “Method for Culturing Hematopoietic Stem Cells” (Sumitomo Pharma Co., Ltd., priority 2019, published 2023).

What was measured:
[1] = tested on: human hematopoietic stem cells (CD34-positive cells); assay: Confirmation test with human cells: 1-week culture of cord blood Lineage-negative CD34-positive cells, flow cytometry; type: cell-based; conditions: 180 cells before culture, no UM171
Text: Collection of Human Cord Blood-Derived Mononuclear Cells Human cord blood-derived mononuclear cells were subjected to removal of erythrocytes and concentration treatment by using EasySep RBC Depletion Reagent (manufactured by […] Technologies Inc.) to obtain a cell population including hematopoietic stem cells.
First, a CD34-positive cell fraction was partially purified from the thus-obtained cell population including hematopoietic stem cells by using an EASYSep Human Cord Blood CD34 Positive Selection Kit II (manufactured by […] Technologies Inc.). The concentrated CD34-positive cells in a cell population enriched with hematopoietic stem cells and progenitor cells were stained with antibodies for the following cell surface markers.
Staining with the antibodies was performed at 4° C., and the cells were incubated for 30 minutes. For staining with the CD34 antibody, the cells were incubated for 90 minutes. Dead cell staining was performed with SYTOX Blue Dead Cell Stain (manufactured by Life Technologies) in accordance with a method recommended by the manufacturer.
Flow cytometry analysis and cell classification (cell sorting) were performed with a FACS Aria III cell sorter (manufactured by BD Biosciences), wherein fractions being Lineage-negative and CD34-positive were regarded as hematopoietic stem cells, and analysis was performed with the software FlowJo (manufactured by Tree Star, Inc.).
The cells after classification were seeded in a 96-well plate. […]
Each of artemether and the compounds of Example 1-23, Example 1-16, and Example 1-7 was prepared with the cell culture medium at nine final concentrations (0.001 μM, 0.003 μM, 0.01 μM, 0.03 μM, 0.1 μM, 0.3 μM, 1 μM, 3 μM, 10 μM), and added to the above human cells seeded after classification to a final volume of 200 μL/well to act thereon. UM171 (35 nM) was added to some of them to examine the presence or absence of synergistic effect. Thereafter, the cells were cultured in a CO2 incubator under conditions of 37° C. and 5% CO2 for 1 week. Viable cell counts and CD34-positive cell counts were analyzed.
After culture, the cells were stained with the antibodies for the surface markers CD34, CD11b, CD14, CD19, CD20, CD235ab, CD3, CD4, CD56, and CD8a, and the visible cell count and the ratio and post-growth cell count of a CD34 fraction (CD34^+, Lin^−) were measured by using a FACS Aria III cell sorter, and analyzed by using FlowJo (BD Biosciences). The CD34 fraction is a fraction including hematopoietic stem cells and multipotent progenitor cells as main components.

[2] = tested on: human hematopoietic stem cells (CD34-positive cells); assay: Functional test with human cells: colony assay (CFU-GEMM) after culture; type: cell-based; conditions: 1 week culture then 2 weeks MethoCult H4435, no UM171
Method: Each of artemether and the compounds of Example 1-23, Example 1-16, and Example 1-7 was prepared with the cell culture medium at nine final concentrations (0.001 μM, 0.003 μM, 0.01 μM, 0.03 μM, 0.1 μM, 0.3 μM, 1 μM, 3 μM, 10 μM), and added to the above human cells seeded after classification to a final volume of 200 μL/well to act thereon. UM171 (35 nM) was added to some of them to examine the presence or absence of synergistic effect. Thereafter, the cells were cultured in a CO2 incubator under conditions of 37° C. and 5% CO2 for 1 week, collected, and then seeded in a 96-well plate to place one CD34-positive cell in each well by using a FACS Aria III cell sorter, and cultured with a MethoCult H4435 ([…] Technologies Inc.) for 2 weeks. After culture, each well was photographed with an optical microscope (manufactured by KEYENCE CORPORATION), and the colony count was determined by visual observation and the form of each colony was determined by visual observation. Colony Formation Unit-Granulocytes, Erythroids, Macrophages, Megakaryocytes (CFU-GEMM), which are derived from myeloid progenitor cells, the erythroid burst colony-forming cells Burst Forming Unit-Erythroids (BFU-E), the granulocyte/macrophage colony-forming cells Colony Formation Unit-Granulocytes, Macrophages (CFU-GM) were determined on the basis of the forms of colonies, and the numbers were counted.

[3] = tested on: human CD34-positive cells transplanted into NOG mouse; assay: In vivo engraftment test with human cells in irradiated NOG mouse (peripheral blood donor chimerism); conditions: cells cultured with compound 0.01 μM, 10000 cells transplanted
Method: (§1) Each of artemether and the compound of Example 1-23 was prepared with the cell culture medium at a final concentration of 0.003 μM or 0.01 μM, and added to the above human cells seeded after classification (166 cells were seeded per well) to a final volume of 200 μL/well to act thereon. Thereafter, for each condition, 10000 cells in total of a CD34-positive fraction were cultured in a CO2 incubator under conditions of 37° C. and 5% CO2 for 1 week, and the cell count was determined. Among the cells after culture, 10000 cells, a number equal to the number of cells before culture, were transplanted into an immunocompromised NOG mouse exposed to a lethal dose of radiation. As a comparative sample, 10000 fresh cord blood-derived CD34-positive cells (uncultured) were transplanted. For peripheral blood donor chimerism at each specified time after transplantation, the human CD45-positive cell count and the mouse CD45-positive cell count were determined by using a human-specific CD45 antibody and a mouse-specific CD45 antibody, and the peripheral blood donor chimerism was represented as the proportion of human CD45-positive cells to the total of human CD45-positive cells and mouse CD45-positive cells (chimerism rate).

[4] = tested on: human CD34-positive fraction; assay: Ex vivo culture of 10000 human CD34-positive cells before transplantation (cell count); type: cell-based; conditions: compound 0.01 μM; 10000 CD34-positive cells cultured 1 week
Method: as §1

SMILES | CD34-positive cell count ([1]; compound 0.001 μM) [cell] | Viable cell count ([1]; compound 0.001 μM) [cell] | CD34-positive cell count ([1]; compound 0.003 μM) [cell] | Viable cell count ([1]; compound 0.003 μM) [cell] | CD34-positive cell count ([1]; compound 0.01 μM) [cell] | Viable cell count ([1]; compound 0.01 μM) [cell] | CD34-positive cell count ([1]; compound 0.03 μM) [cell] | Viable cell count ([1]; compound 0.03 μM) [cell] | CD34-positive cell count ([1]; compound 0.1 μM) [cell] | Viable cell count ([1]; compound 0.1 μM) [cell] | CD34-positive cell count ([1]; compound 0.3 μM) [cell] | Viable cell count ([1]; compound 0.3 μM) [cell] | CD34-positive cell count ([1]; compound 1 μM) [cell] | Viable cell count ([1]; compound 1 μM) [cell] | CD34-positive cell count ([1]; compound 3 μM) [cell] | Viable cell count ([1]; compound 3 μM) [cell] | CD34-positive cell count ([1]; compound 10 μM) [cell] | Viable cell count ([1]; compound 10 μM) [cell] | Colony count (colony) after culture (CFU-GEMM) ([2]; compound 0.001 μM) [colony] | Colony count (colony) after culture (CFU-GEMM) ([2]; compound 0.003 μM) [colony] | further results
C[C@H]1[C@H](C(N)=O)O[C@@H]2O[C@@]3(C)CC[C@H]4[C@H](C)CC[C@@H]1[C@@]24OO3 [Example 1-16, (3R,5aS,6R,8aS,9R,10R,12R,12aR)-3,6,9-Trimethyldecahydro-12H-3,12-epoxypyrano[4,3-j][1,2]benzodioxepine-10-carboxamide] | 143 | 1306 | 173 | 1224 | 116 | 1301 | 130 | 590 | 92 | 811 | 32 | 549 | 13 | 368 | 13 | 300 | 3 | 264 | 130.6 | 112.2 | Colony count (colony) after culture (CFU-GEMM) ([2]; compound 0.01 μM): 65.1 colony; Colony count (colony) after culture (CFU-GEMM) ([2]; compound 0.03 μM): 68.8 colony; Colony count (colony) after culture (CFU-GEMM) ([2]; compound 0.1 μM): 40.6 colony; Colony count (colony) after culture (CFU-GEMM) ([2]; compound 0.3 μM): 22.9 colony; Colony count (colony) after culture (CFU-GEMM) ([2]; compound 1 μM): 15.7 colony; Colony count (colony) after culture (CFU-GEMM) ([2]; compound 3 μM): 10.0 colony; Colony count (colony) after culture (CFU-GEMM) ([2]; compound 10 μM): 8.8 colony
C[C@H]1[C@H](c2ccco2)O[C@@H]2O[C@@]3(C)CC[C@H]4[C@H](C)CC[C@@H]1[C@@]24OO3 [Example 1-7, (3R,5aS,6R,8aS,9R,10R,12R,12aR)-10-(Furan-2-yl)-3,6,9-trimethyldecahydro-12H-3,12-epoxypyrano[4,3-j][1,2]benzodioxepine] | 175 | 1314 | 113 | 1013 | 150 | 1115 | 86 | 905 | 80 | 693 | 5 | 439 | 4 | 196 | 0 | 202 | 0 | 181 | 43.8 | 33.8 | Colony count (colony) after culture (CFU-GEMM) ([2]; compound 0.01 μM): 74.3 colony; Colony count (colony) after culture (CFU-GEMM) ([2]; compound 0.03 μM): 83.0 colony; Colony count (colony) after culture (CFU-GEMM) ([2]; compound 0.1 μM): 64.1 colony; Colony count (colony) after culture (CFU-GEMM) ([2]; compound 0.3 μM): 19.5 colony; Colony count (colony) after culture (CFU-GEMM) ([2]; compound 1 μM): 0.0 colony; Colony count (colony) after culture (CFU-GEMM) ([2]; compound 3 μM): 0.0 colony; Colony count (colony) after culture (CFU-GEMM) ([2]; compound 10 μM): 0.0 colony
COCCO[C@H]1O[C@@H]2O[C@@]3(C)CC[C@H]4[C@H](C)CC[C@@H]([C@H]1C)[C@@]24OO3 [Example 1-23, (3R,5aS,6R,8aS,9R,10S,12R,12aR)-10-(2-methoxyethoxy)-3,6,9-trimethyldecahydro-12H-3,12-epoxypyrano[4,3-j][1,2]benzodioxepine] | 156 | 1581 | 65 | 797 | 72 | 1152 | 63 | 901 | 28 | 537 | 19 | 462 | 16 | 480 | 15 | 269 | 0 | 333 | 171.3 | 39.9 | Colony count (colony) after culture (CFU-GEMM) ([2]; compound 0.01 μM): 76.8 colony; Colony count (colony) after culture (CFU-GEMM) ([2]; compound 0.03 μM): 22.5 colony; Colony count (colony) after culture (CFU-GEMM) ([2]; compound 0.1 μM): 13.4 colony; Colony count (colony) after culture (CFU-GEMM) ([2]; compound 0.3 μM): 3.9 colony; Colony count (colony) after culture (CFU-GEMM) ([2]; compound 1 μM): 12.0 colony; Colony count (colony) after culture (CFU-GEMM) ([2]; compound 3 μM): 4.5 colony; Colony count (colony) after culture (CFU-GEMM) ([2]; compound 10 μM): 0.0 colony; Donor chimerism ([3]; 1 month after transplantation): 0.299 ± 0.049%; Donor chimerism ([3]; 2 months after transplantation): 0.748 ± 0.585%; Viable cell count [4]: 20071 cell
